In a melting point compilation (Tetko et al.):

Row | melting point [°C] | SMILES
1 | 105 | CC(C)(C)c1ncc(C(=O)Nc2cccc(Br)c2)nc1Cl
2 | 70 | OC1Cc2ccccc2C1
3 | 18 | C#CC(C)(C)N
4 | 97 to 101 | CCOC(=O)c1csc(-c2ccc(Br)s2)n1
5 | < 20 | Brc1ccccc1Oc1ccccc1
6 | 48.5 | OC(c1ccc(Cl)cc1)c1cc2ccccc2o1 (centres undefined)
7 | 124 to 125 | CC(=O)N(c1ccc(C)cc1)c1nc(CCl)cs1
8 | 265 to 268 | CC(C)n1cc(C#N)c(=O)[nH]c1=O
9 | 258 | CCc1c(O)c(=O)ccn1N1CCOCC1
10 | 157 | COc1ccc2c(c1O)CN1CCC(=O)CC1C2O (centres undefined)
11 | 186 to 187 | Cn1cncc1C(=O)NN
12 | 173 | N#CC1(C#N)C2COC(C3=C2CCCC3)C1(C#N)C#N (centres undefined)
13 | 107 | COC(=O)C(Cc1ccc(O)cc1)NC(=O)OC(C)(C)C (centres undefined)
14 | 245 | Cc1cc(C)n2nc(N)c(/N=N/c3cccnc3)c2n1
15 | 97 | O=CCO
16 | 136 to 138 | COc1ccc(CC(N)=S)cc1OC
17 | 51 | CC(C)(C)OC(=O)n1cccc1C=O
18 | 47 | O=C(c1ccccc1)c1ccc(F)cc1
19 | 109 to 111 | NNS(=O)(=O)c1ccc(-c2ccccn2)s1
20 | 189 | COC1(OC)c2ccccc2C(O)(c2ccccc2)c2ccccc21
21 | 185 | Cc1ccc(S(=O)(=O)c2coc(S(N)(=O)=O)c2)cc1
22 | 223 to 225 | CC(=O)c1ccc(NC(=O)C(C(F)(F)F)(C(F)(F)F)C(F)(F)F)cc1
23 | 144 | O=C(O)Cc1cccnc1

Row | melting point [°C] | SMILES
24 | 92 to 93 | CCOC(=O)c1c(N)sc(C)c1-c1ccccc1
25 | -1 | COC(=O)c1cc(C)ccc1O
26 | 153 to 154 | O=[N+]([O-])c1cc([N+](=O)[O-])c(C2CO2)cc1C1CO1 (centres undefined)
27 | 150 | CC1(C)C(=O)NC1c1ccccc1 (centres undefined)
28 | 108 | NC(=S)c1cccs1
29 | 38 | O=[N+]([O-])c1ccc(S(=O)(=O)Cl)cc1Cl
30 | 118 | O=C(C(=S)Nc1ccc(Br)cc1)c1ccccc1
31 | 185 to 186 | O=[N+]([O-])c1ccc(C#Cc2ccc([N+](=O)[O-])cc2S(=O)(=O)Oc2ccccc2)c(S(=O)(=O)Oc2ccccc2)c1
32 | 192 | O=C(O)C[C@@H](NC(=O)OCC1c2ccccc2-c2ccccc21)c1ccc(Br)cc1
33 | 163 | O=C(O)c1cc(I)ccc1F
34 | -11 | O=C(O)CS
35 | -65 | CN1CCOCC1
36 | 290 | Cn1c(=O)c(C2=NNC(=O)C2=Cc2cccc(O)c2)c(O)c2ccccc21
37 | 150 to 151 | ON=C1C2CC3CC(C2)CC1C3
38 | 260 to 262 | O=C(O)c1ccc(Cn2cnc3ccccc32)cc1
39 | 85 to 87 | O=C(CBr)c1cc(-c2ccc(Cl)cc2Cl)no1
40 | 79 | COC(=O)c1cc(Br)c(Br)s1
41 | 66 | N#Cc1ccc(Cl)c(C(F)(F)F)c1
42 | 142 to 145 | O=Cc1ccc(-n2ccnc2)cc1
43 | 143 to 147 | CC(C)[C@H](NC(=O)OCC1c2ccccc2-c2ccccc21)C(=O)O
44 | 200 | COc1ccc(-c2nnc3n2NCS3)cc1
45 | 213 to 217 | CCOC(=O)c1[nH]c2cc(Cl)cc(Cl)c2c1C=O
46 | 155 | Nc1ccccc1S(N)(=O)=O

Row | melting point [°C] | SMILES
47 | 142 | COc1ccc2c(c1)C(=O)CC(c1ccccc1)O2 (centres undefined)
48 | 143 | CC1=C(Cl)CCP(=O)(c2ccccc2)C1 (centres undefined)
49 | 250 | O=P(O)(O)C(Cl)(Cl)P(=O)(O)O
50 | 173 to 175 | O=C(Cl)c1cc2c(Cl)cc(Cl)cc2[nH]1
51 | 360 to 365 | Nc1ncnc2[nH]cnc12
52 | 152 | O=C1N(c2ccccc2)C(=O)[C@]2(Cl)C=C(c3ccccc3)[C@]12Cl
53 | 335 to 337 | Oc1nnc(C2c3ccccc3Oc3ccccc32)o1
54 | 82 | CC(=Cc1ccccc1)c1ccccc1
55 | 104 to 106 | C=CCc1c(O)cccc1C=O
56 | -27 | CC1(C)OCC(CO)O1 (centres undefined)
57 | 220 | C[C@H](CC=C(c1ccccc1)c1ccccc1)[C@H]1CC[C@H]2[C@@H]3C(O)CC4CC(O)CC[C@]4(C)[C@H]3CC(O)[C@]12C (some centres undefined)
58 | 136 to 144 | CCOC(=O)Cc1csc(=S)[nH]1
59 | 95 | O=C1CC2CCC1C2 (centres undefined)
60 | 131 | O=C(c1ccc2ccccc2c1)c1noc(-c2ccc([N+](=O)[O-])cc2)c1S(=O)(=O)c1ccccc1
61 | 141 to 145 | O=C(O)COc1ccccc1Br
62 | 155 to 156 | N#CC(=CNNc1ccccc1)c1ccccc1
63 | 147 | Cc1ccsc1C(=O)O
64 | 159 | N#CCC(=O)c1ccc(N)cc1
65 | 61 to 66 | OC[C@H]1CC[C@H](CO)CC1
66 | 19 | CCCCc1cc(C)ccc1O
67 | 107 | CC/C(=N\O)C1=CC2(C)CCC1C2(C)C (centres undefined)
68 | 73 to 75 | O=Cc1ccc(Cn2cncn2)cc1
69 | 163 to 165 | COc1ccc(C(c2c(O)cc(C)oc2=O)c2c(O)cc(C)oc2=O)cc1

Row | melting point [°C] | SMILES
70 | 124 | CCOC(=O)COc1ccc2c(=O)cc(-c3ccccc3)oc2c1
71 | 260 | COc1nc(C)nc(N)n1
72 | 81 to 82 | Cc1onc(-c2ccccc2)c1CO
73 | 168 | CC12CCC(C1(C)C)C(CCC(Br)c1ccccc1)(C1(CCC(Br)c3ccccc3)C(=O)C3(C)CCC1C3(C)C)C2=O (centres undefined)
74 | 81 to 85 | ClCc1nnc(-c2ccc(Cl)cc2)o1
75 | 22 | CCCCCCCCCCCCCCCc1ccccc1
76 | 145 | O=CC(O)CO (centres undefined)
77 | 32 to 34 | Ic1cccc(CN2CCOCC2)c1
78 | 43 | c1ccc2nsnc2c1
79 | < -20 | CCOc1ccc2c(c1)C(C)=CC(C)(C)N2
80 | 36 | Cc1ccc(N)cc1I
81 | -28 | CC1CCSCC1
82 | 151 to 154 | Cn1nc(C(C)(C)C)cc1C(=O)O
83 | 144 | O=[N+]([O-])c1ccccc1C(Cl)C(Cl)c1ccccn1 (centres undefined)
84 | 142 | C[N+](C)(C)CCOP(=O)([O-])OCC(O)CO (centres undefined)
85 | 139 to 140 | Cn1nc(-c2cccs2)cc1N
86 | 229 to 232 | Oc1cc(C(F)(F)F)nc2ccc(OC(F)(F)F)cc12
87 | 150 to 152 | O=S(=O)(Cl)c1ccc(S(=O)(=O)N2CCOCC2)cc1
88 | 63 to 65 | O=S(=O)(Cl)c1cc(Br)c(Cl)s1
89 | 118 | O=C(O)Cc1cccc(F)c1F
90 | 119 | Cc1cc(C=O)ccc1O
91 | 176 to 178 | O=C(O)c1cccc2ccsc12
92 | 92 to 95 | NC(=NO)c1ccc(F)cc1

Row | melting point [°C] | SMILES
93 | 87 to 90 | COC(=O)c1scc(C#N)c1-n1cccc1
94 | 61.5 | CCC(C)c1cc([N+](=O)[O-])cc([N+](=O)[O-])c1OC(=O)OC(C)C (centres undefined)
95 | -20 | CCCCCCCCCI
96 | 239 | COC(=O)NN=Cc1c[n+]([O-])c2ccccc2[n+]1[O-]
97 | 186 | Cc1cc(O)c(C(C)(C)C)cc1C(C)CC(c1cc(C(C)(C)C)c(O)cc1C)c1cc(C(C)(C)C)c(O)cc1C (centres undefined)
98 | 190 | CC(CCC(=O)O)C1CCC2C3CCC4C(Br)C(=O)CCC4(C)C3CCC12C (centres undefined)
99 | 166 | COC(=O)CCc1c([N+](=O)[O-])cc2c(c1[N+](=O)[O-])NC(=O)CC2
100 | 192 to 194 | Cc1cc(C)c(Cc2cnc(NC3=NCCN3)s2)c(C)c1
101 | 279 | N=C(N)N1CCc2ccccc2C1
102 | 145 to 146 | COc1ccccc1-c1ccc(C=C(C(C)=O)C(C)=O)o1
103 | 28 | CCCCCCCCCCCCCCCCC(=O)OCC
104 | 164 | O=c1cc(-c2ccccc2)oc2ccc3ccccc3c12
105 | 253 to 255 | C=CC[C@H](N)C(=O)O
106 | 41 | ON=Cc1ccc(OC(F)(F)F)cc1
107 | 97 to 99 | S=C=Nc1ccc(-n2cccn2)cc1
108 | 167 | O=C1CC(=P(c2ccccc2)(c2ccccc2)c2ccccc2)C(=O)O1
109 | 228 | CCNc1nc(Cl)nc(NCC(=O)OCC)n1
110 | 84 to 86 | CCOC(=O)CNc1ccc(I)cc1
111 | 135 to 137 | C#CCC1(CC#C)C(=O)OC(C)(C)OC1=O
112 | 320 to 325 | Oc1noc2nc3ccccc3nc12
113 | 115 | C=C1C2CC(C(=C(c3ccccc3)c3ccccc3)C2c2ccccc2)C1(C)C (centres undefined)
114 | 178 | COc1ccc(N/N=C(\C#N)c2nc(C)c(/N=N/c3ccccc3)s2)cc1
115 | 71 | COc1cc(Cl)ccc1[N+](=O)[O-]

Row | SMILES | melting point [°C]
116 | CCCCCCCCCCCC(=O)OOC(=O)CCCCCCCCCCC | 53 to 57
117 | CCN(CC)C(=O)C1C=C2c3cccc4[nH]cc(c34)CC2N(C)C1 (centres undefined) | 82.5
118 | COc1ccc(NN=C2C(=O)NC(=O)NC2=O)cc1 | 264
119 | CCCCCCCCCBr | -29
120 | CCC(C)c1cc([N+](=O)[O-])cc([N+](=O)[O-])c1OC(=O)C=C(C)C (centres undefined) | 70
121 | O=C(O)CCNC(=O)CCl | 91 to 92
122 | NNC(=O)c1cccnc1 | 162
123 | CCC(=O)OC(Cc1ccccc1)(c1ccccc1)C(C)CN(C)C (centres undefined) | 75
124 | Clc1cc2c(c(Cl)c1Cl)Oc1c(cc(Cl)c(Cl)c1Cl)O2 | 243
125 | O=C(O)c1c(Cl)c(Cl)c(Cl)c(Cl)c1C(=O)O | 98
126 | O=C(CBr)c1nccs1 | 54 to 55
127 | Sc1ccc(Cl)cc1 | 61
128 | Cc1cc(C(F)(C(F)(F)F)C(F)(F)F)ccc1NC(=O)c1cccc(I)c1C(=O)NC(C)(C)CS(C)(=O)=O | 218
129 | CN(N=O)c1ccc(N=O)cc1 | 101
